# Molecular target: T1, CDK4/cyclin D3 (Homo sapiens, UniProt P11802)
# T1 construct: made in house; host or cells: insect cells (baculovirus co-infection)
# Test: Inhibition of CDK4/Cyclin D retinoblastoma kinase activity
# Assay type: biochemical
# Conditions: for inhibition at 0.1 µM / % Inhib CDK4/D @ 0.1 μM: test compound at 0.1 μM; for inhibition at 0.1 µM: read-out: % Inhib CDK4/D @ 0.1 μM; for inhibition at 1 µM / % Inhib CDK4/D @ 1 μM: test compound at 1 μM (head line shifted: 'mM' printed beside 'Structure'); for inhibition at 1 µM: read-out: % Inhib CDK4/D @ 1 μM; for inhibition at 0.03 µM / % Inhib CDK4/D @ 0.03: test compound at 0.03 (unit cell empty, head line shifted; μM); for inhibition at 0.03 µM: read-out: % Inhib CDK4/D @ 0.03
# Method: Cyclin-dependent kinase activity was measured by quantifying the enzyme-catalyzed, time-dependent incorporation of radioactive phosphate from [^32P]ATP or [^33P]ATP into a protein substrate. Unless noted otherwise, assays were performed in 96-well plates in a total volume of 50 μL, in the presence of 10 mM HEPES (N-[2-hydroxyethyl]piperazine-N′-[2-ethanesulfonic acid]) (pH 7.4), 10 mM MgCl2, 25 μM adenosine triphosphate (ATP), 1 mg/mL ovalbumin, 5 μg/mL leupeptin, 1 mM dithiothreitol, 10 mM β-glycerophosphate, 0.1 mM sodium vanadate, 1 mM sodium fluoride, 2.5 mM ethylene glycol-bis(β-aminoethyl ether)-N,N,N′N′-tetraacetic acid (EGTA), 2% (v/v) dimethylsulfoxide, and 0.03-0.4 μCi [^32/33P]ATP per reaction. Reactions were initiated with enzyme, incubated at 30° C., and terminated after 20 minutes by the addition of ethylenediaminetetraacetic acid (EDTA) to 250 mM. The phosphorylated substrate was then captured on a nitrocellulose or phosphocellulose membrane using a 96-well filtration manifold, and unincorporated radioactivity was removed by repeated washing with 0.85% phosphoric acid. Radioactivity was quantified by exposing the dried membranes to a phosphorimager.
# Inhibition was measured relative to control wells that contained all reaction components including 2% (v/v) DMSO but no compound, after subtraction of background radioactivity measured in the absence of enzyme. Apparent Ki values of discrete compounds were measured by assaying enzyme activity in the presence of different inhibitor compound concentrations and subtracting the background radioactivity measured in the absence of enzyme. The kinetic parameters (kcat, Km for ATP) were measured for each enzyme under the usual assay conditions by determining the dependence of initial rates on ATP concentration. Inhibition data were fit to an equation for competitive inhibition using Kaleidagraph (Synergy Software), or were fit to an equation for competitive tight-binding inhibition using the software KineTic (BioKin, Ltd.).
# A complex of human CDK4 and genetically truncated (1-264) cyclin D3 was purified using traditional biochemical chromatographic techniques from insect cells that had been co-infected with the corresponding baculovirus expression vectors (see e.g., Meijer and Kim, “Chemical Inhibitors of Cyclin-Dependent Kinases,” Methods in Enzymol., 283, 113-128 (1997)). The enzyme complex (5 nM) was assayed with 0.3-0.5 μg of purified recombinant retinoblastoma protein fragment (Rb) as a substrate. The engineered Rb fragment (residues 386-928 of the native retinoblastoma protein; 62.3 kDa) contains the majority of the phosphorylation sites found in the native 106-kDa protein, as well as a tag of six histidine residues for ease of purification. Phosphorylated Rb substrate was captured by microfiltration on a nitrocellulose membrane and quantified using a phosphorimager as described above. For measurement of tight-binding inhibitors, the assay duration was extended to 60 minutes, during which the time-dependence of product formation was linear and initial rate conditions were met.
# T1 sequence (P11802 whole entry): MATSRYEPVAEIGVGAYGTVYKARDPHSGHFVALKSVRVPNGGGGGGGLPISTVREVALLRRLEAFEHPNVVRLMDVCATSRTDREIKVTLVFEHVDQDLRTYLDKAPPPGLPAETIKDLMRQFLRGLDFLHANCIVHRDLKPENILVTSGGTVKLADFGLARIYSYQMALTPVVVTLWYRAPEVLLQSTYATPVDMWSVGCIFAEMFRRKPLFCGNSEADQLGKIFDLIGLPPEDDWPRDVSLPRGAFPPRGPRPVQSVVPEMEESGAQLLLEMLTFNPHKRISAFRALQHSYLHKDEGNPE
# T1 sequence (P30281 1-264 partner limits assumed): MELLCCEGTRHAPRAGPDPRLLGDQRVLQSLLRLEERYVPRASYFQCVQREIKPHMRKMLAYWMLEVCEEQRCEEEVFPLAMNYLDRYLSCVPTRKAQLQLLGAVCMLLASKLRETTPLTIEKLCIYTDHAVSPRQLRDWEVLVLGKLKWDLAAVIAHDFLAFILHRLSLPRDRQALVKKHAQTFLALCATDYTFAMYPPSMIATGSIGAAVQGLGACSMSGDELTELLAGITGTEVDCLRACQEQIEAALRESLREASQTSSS
SMILES,inhibition at 0.1 µM [%],inhibition at 1 µM [%],inhibition at 0.03 µM [%],% Inhib CDK4/D @ 0.1 μM [%],% Inhib CDK4/D @ 1 μM [%],% Inhib CDK4/D @ 0.03 [%]
COC(=O)/C=C/C[S+]([O-])c1ccc(Nc2nc(N)c(C(=O)c3c(Cl)cccc3Cl)s2)cc1 (stereo not drawn) [DD(84)],26,45.7,-5.6,,,
Nc1nc(Nc2ccc([S+]([O-])CCCO)cc2)sc1C(=O)c1c(Cl)cccc1Cl (stereo not drawn) [DD(85)],49,76.8,3.7,,,
C=CCC[S+]([O-])c1ccc(Nc2nc(N)c(C(=O)c3c(Cl)cccc3Cl)s2)cc1 (stereo not drawn) [DD(86)],36,62.5,-9.8,,,
Nc1nc(Nc2ccc([S+]([O-])CCN3CCCC3)cc2)sc1C(=O)c1c(Cl)cccc1Cl (stereo not drawn) [DD(87)],29,68.2,-16,,,
Nc1nc(Nc2ccc([S+]([O-])Cc3ncon3)cc2)sc1C(=O)c1c(Cl)cccc1Cl (stereo not drawn) [DD(88)],56,81.5,4.1,,,
Nc1nc(Nc2ccc([S+]([O-])CC3CNC(=O)O3)cc2)sc1C(=O)c1c(Cl)cccc1Cl (stereo not drawn) [DD(89)],35,61.7,-29,,,
CN(C)CCC[S+]([O-])c1ccc(Nc2nc(N)c(C(=O)c3c(Cl)cccc3Cl)s2)cc1 (stereo not drawn) [DD(90)],44,70.2,-4.9,,,
Nc1nc(Nc2ccc([S+]([O-])CCN3CCCCC3)cc2)sc1C(=O)c1c(Cl)cccc1Cl (stereo not drawn) [DD(91)],24,68.2,-6.3,,,
Nc1nc(Nc2ccc([S+]([O-])CC3CO3)cc2)sc1C(=O)c1c(Cl)cccc1Cl (stereo not drawn) [DD(92)],26,65.8,-4.6,,,
CC(C)CC[S+]([O-])c1ccc(Nc2nc(N)c(C(=O)c3c(Cl)cccc3Cl)s2)cc1 (stereo not drawn) [DD(93)],35,43,-4.4,,,
COCC[S+]([O-])c1ccc(Nc2nc(N)c(C(=O)c3c(Cl)cccc3Cl)s2)cc1 (stereo not drawn) [DD(94)],51,70.9,17,,,
Nc1nc(Nc2ccc([S+]([O-])CC(=O)Nc3ccccc3)cc2)sc1C(=O)c1c(Cl)cccc1Cl (stereo not drawn) [DD(95)],55,80.7,5.3,,,
Nc1nc(Nc2ccc([S+]([O-])CC3CC3)cc2)sc1C(=O)c1c(Cl)cccc1Cl (stereo not drawn) [DD(96)],28,55.4,-8.1,,,
COc1cccc(C[S+]([O-])c2ccc(Nc3nc(N)c(C(=O)c4c(Cl)cccc4Cl)s3)cc2)c1 (stereo not drawn) [DD(97)],36,66.8,-3.5,,,
Nc1nc(Nc2ccc([S+]([O-])CC3CCCO3)cc2)sc1C(=O)c1c(Cl)cccc1Cl (stereo not drawn) [DD(98)],21,45.4,-12,,,
CN1CCCC1CC[S+]([O-])c1ccc(Nc2nc(N)c(C(=O)c3c(Cl)cccc3Cl)s2)cc1 (stereo not drawn) [DD(99)],34,77.1,-5.6,,,
CC1(C[S+]([O-])c2ccc(Nc3nc(N)c(C(=O)c4c(Cl)cccc4Cl)s3)cc2)CO1 (stereo not drawn) [DD(100)],33,63.7,7.1,,,
NC(=O)C[S+]([O-])c1ccc(Nc2nc(N)c(C(=O)c3c(Cl)cccc3Cl)s2)cc1 (stereo not drawn) [DD(101)],78,80.4,38,,,
CCOC(=O)CC[S+]([O-])c1ccc(Nc2nc(N)c(C(=O)c3c(Cl)cccc3Cl)s2)cc1 (stereo not drawn) [DD(102)],42,46.2,2.1,,,
CC(C)OC(=O)C[S+]([O-])c1ccc(Nc2nc(N)c(C(=O)c3c(Cl)cccc3Cl)s2)cc1 (stereo not drawn) [DD(103)],38,47.5,-2.9,,,

SMILES,inhibition at 0.1 µM [%],inhibition at 1 µM [%],inhibition at 0.03 µM [%],% Inhib CDK4/D @ 0.1 μM [%],% Inhib CDK4/D @ 1 μM [%],% Inhib CDK4/D @ 0.03 [%]
CC(C)=CC[S+]([O-])c1ccc(Nc2nc(N)c(C(=O)c3c(Cl)cccc3Cl)s2)cc1 (stereo not drawn) [DD(104)],14,36.4,-38,,,
CCC[S+]([O-])c1ccc(Nc2nc(N)c(C(=O)c3c(Cl)cccc3Cl)s2)cc1 (stereo not drawn) [DD(105)],39,61.9,0.9,,,
COC(=O)C[S+]([O-])c1ccc(Nc2nc(N)c(C(=O)c3c(Cl)cccc3Cl)s2)cc1 (stereo not drawn) [DD(106)],45,66.8,1.7,,,
CN1CCCC(C[S+]([O-])c2ccc(Nc3nc(N)c(C(=O)c4c(Cl)cccc4Cl)s3)cc2)C1 (stereo not drawn) [DD(107)],28,47.3,-11,,,
NC(=O)CC[S+]([O-])c1ccc(Nc2nc(N)c(C(=O)c3c(Cl)cccc3Cl)s2)cc1 (stereo not drawn) [DD(108)],60,73.9,14,,,
Nc1nc(Nc2ccc([S+]([O-])CCO)cc2)sc1C(=O)c1c(Cl)cccc1Cl (stereo not drawn) [DD(109)],,,,67,73.5,25
Nc1nc(Nc2ccc([S+]([O-])CCO)cc2)sc1C(=O)c1c(Cl)cccc1Cl (stereo not drawn) [DD(110)],,,,27,28.9,3.7
CC(C)CCOC(=O)C[S+]([O-])c1ccc(Nc2nc(N)c(C(=O)c3c(Cl)cccc3Cl)s2)cc1 (stereo not drawn) [DD(111)],32,64.8,-1.7,,,
CN(C)CC[S+]([O-])c1ccc(Nc2nc(N)c(C(=O)c3c(Cl)cccc3Cl)s2)cc1 (stereo not drawn) [DD(112)],27,63.2,-4.9,,,
CCOCC[S+]([O-])c1ccc(Nc2nc(N)c(C(=O)c3c(Cl)cccc3Cl)s2)cc1 (stereo not drawn) [DD(113)],30,59.4,1.1,,,
Nc1nc(Nc2ccc([S+]([O-])CC(O)CO)cc2)sc1C(=O)c1c(Cl)cccc1Cl (stereo not drawn) [DD(114)],46,77.9,16,,,
Nc1nc(Nc2ccc([S+]([O-])Cc3ccncc3)cc2)sc1C(=O)c1c(Cl)cccc1Cl (stereo not drawn) [DD(115)],45,68.5,6.3,,,
CCC(CC)C[S+]([O-])c1ccc(Nc2nc(N)c(C(=O)c3c(Cl)cccc3Cl)s2)cc1 (stereo not drawn) [DD(116)],15,26.6,-2.9,,,
CC(=O)OCC[S+]([O-])c1ccc(Nc2nc(N)c(C(=O)c3c(Cl)cccc3Cl)s2)cc1 (stereo not drawn) [DD(117)],52,61.1,16,,,
CC(C)OC(=O)CC[S+]([O-])c1ccc(Nc2nc(N)c(C(=O)c3c(Cl)cccc3Cl)s2)cc1 (stereo not drawn) [DD(118)],22,49.9,-0.7,,,
Nc1nc(Nc2ccc([S+]([O-])CCN3CCOCC3)cc2)sc1C(=O)c1c(Cl)cccc1Cl (stereo not drawn) [DD(119)],36,58,3.8,,,
CC(C)(CO)C[S+]([O-])c1ccc(Nc2nc(N)c(C(=O)c3c(Cl)cccc3Cl)s2)cc1 (stereo not drawn) [DD(120)],29,57.1,-34,,,
CCN(CC)C(=O)C[S+]([O-])c1cccc(Nc2nc(N)c(C(=O)c3c(Cl)cccc3Cl)s2)c1 (stereo not drawn) [DD(121)],41,59.8,-0.5,,,
Cc1noc(C)c1C[S+]([O-])c1cccc(Nc2nc(N)c(C(=O)c3c(Cl)cccc3Cl)s2)c1 (stereo not drawn) [DD(122)],40,54.3,16,,,
CC(CN(C)C)C[S+]([O-])c1cccc(Nc2nc(N)c(C(=O)c3c(Cl)cccc3Cl)s2)c1 (stereo not drawn) [DD(123)],34,51.2,8,,,

# From US20040176431A1, “Antiproliferative 2-(sulfo-phenyl)-aminothiazole derivatives and pharmaceutical compositions, and methods for their use” (Pfizer, Inc., priority 2003, published 2004)
